Assay results: patent US20130045491A1, “METHODS FOR ACTIVATING T CELLS” (priority 2011, published 2013)

What was measured:
TM cells = assay: Cell viability of memory T cells treated with inhibitors; settings: 1-10 μg/mL inhibitor, 48 hours
CCR6^+ TM cells = assay: Effect of PI-3K/Akt inhibitors on cytokine production of IL-7-cultured CCR6+ memory T cells; type: cell-based, human; settings: one week in IL-7, then inhibitor for 48 hours, restimulation
Method: (§1) Peripheral Blood Mononuclear Cells (PBMCs) from healthy individuals (New York Blood Center, New York, N.Y.) were prepared using Ficoll-paque plus (GE Amersham, Uppsala, Sweden). Whole blood samples from rheumatoid arthritis patients were purchased from Bioreclamation (New York, N.Y.) and were processed similar to healthy donor blood. All healthy donor and patient samples were consented prior to purchase, were none-identifiable and approved by institutional human subjects board. CD4^+ T cells were isolated using Dynal CD4 Positive Isolation Kit (Invitrogen, Carlsbad, Calif.) directly from purified PBMCs and were >99% pure. CD4^+ T cells were sorted by FACS ARIA cell sorter (BD, San Jose, Calif.) into CD45RO^+ CD25^− memory T (TM) cells. TM cells were activated either by anti-CD3 and anti-CD28 (aCD3/aCD28) coated beads (1:4 beads:cells ratio) for 18-24 hours, or by Phorbol 12-myristate 13-acetate (PMA) and ionomycin for 4 hours and further FACS sorted based on CCR6 and IL-17 expression into CCR6^−IL-17^−, CCR6^+IL-17^+, or CCR6^+ IL-17^− subsets (as determined by secretion assay labeling, see below). Sorted cells (>99% pure) were cultured in serum-free Xvivo-15 medium (Lonza, Wakersville, Md.) at 37° C. and 5% CO2 for 6-7 days prior to restimulation with PMA and ionomycin (see below). […] To determine the fold expansion, CCR6^+IL-17^+ or CCR6^+IL-17^− subsets were labeled with CFSE (Molecular Probes, Eugene, Oreg.) or eFluor 670 (eBioscience, San Diego, Calif.), respectively, as previously described (Oswald-Richter, et al., PLoS Biol 2004; 2: E198). […] In the experiments using PI-3K signaling inhibitors, cells were treated with PI-3K specific inhibitor, LY294002 (EMD, Gibbstown, N.J.), or Akt specific inhibitor, AKTi-1/2 (EMD), for 2 days before PMA and Ionomycin restimulation.

Akt = assay: Cytokine-dependent Akt phosphorylation in memory T cells treated with inhibitors; type: cell-based, human; settings: 1-10 μg/mL inhibitor, 48 hours
Method: (§2) Peripheral Blood Mononuclear Cells (PBMCs) from healthy individuals (New York Blood Center, New York, N.Y.) were prepared using Ficoll-paque plus (GE Amersham, Uppsala, Sweden). Whole blood samples from rheumatoid arthritis patients were purchased from Bioreclamation (New York, N.Y.) and were processed similar to healthy donor blood. All healthy donor and patient samples were consented prior to purchase, were none-identifiable and approved by institutional human subjects board. CD4^+ T cells were isolated using Dynal CD4 Positive Isolation Kit (Invitrogen, Carlsbad, Calif.) directly from purified PBMCs and were >99% pure. CD4^+ T cells were sorted by FACS ARIA cell sorter (BD, San Jose, Calif.) into CD45RO^+ CD25^− memory T (TM) cells. TM cells were activated either by anti-CD3 and anti-CD28 (aCD3/aCD28) coated beads (1:4 beads:cells ratio) for 18-24 hours, or by Phorbol 12-myristate 13-acetate (PMA) and ionomycin for 4 hours and further FACS sorted based on CCR6 and IL-17 expression into CCR6^−IL-17^−, CCR6^+IL-17^+, or CCR6^+ IL-17^− subsets (as determined by secretion assay labeling, see below). Sorted cells (>99% pure) were cultured in serum-free Xvivo-15 medium (Lonza, Wakersville, Md.) at 37° C. and 5% CO2 for 6-7 days prior to restimulation with PMA and ionomycin (see below). […]

[1] = system: resting CCR6^+CD45RO^+CD25^− TM cells; assay: Cytokine expression in resting CCR6+ memory T cells stimulated with cytokines without TCR stimulation; type: cell-based, human
Method: as §1, with “[…] […]” for “TM cells were activated either by anti-CD3 and anti-CD28 (aCD3/aCD28) coated beads (1:4 beads:cells ratio) for 18-24 hours, or by Phorbol 12-myristate 13-acetate (PMA) and ionomycin for 4 hours and further FACS sorted based on CCR6 and IL-17 expression into CCR6^−IL-17^−, CCR6^+IL-17^+, or CCR6^+ IL-17^− subsets (as determined by secretion assay labeling, see below). Sorted cells (>99% pure) were cultured in serum-free Xvivo-15 medium (Lonza, Wakersville, Md.) at 37° C. and 5% CO2 for 6-7 days prior to restimulation with PMA and ionomycin (see below).”

RORC = RORC / Foxp3 mRNA expression by quantitative PCR; type: cell-based, human; settings: unpublished data
Source text: Purified T cells (1×10^5) were snap frozen in liquid nitrogen for total RNA isolation. Total RNA was isolated using RNeasy isolation kit (Qiagen, Valencia, Calif.) according to the manufacturer's protocol. The extracted RNA was then reverse transcribed into cDNA and quantified using Taqman Cell to CT kit (Applied Biosystems, Carlsbad, Calif.). Taqman primers and probe sets were purchased from Applied Biosystems: Human KLF2 (Hs00360439_g1), RORC (Hs01076120_g1), Il-17a (Hs00174383_m1), b-Actin (Hs03023880_g1), Foxp3 (Hs00203958_m1). Data was acquired and analyzed on ABI 7500 sequence detection system. Quantitative real-time PCR data was analyzed by normalizing Ct values of genes of interest to the Ct values of the housekeeping gene b-Actin.

CCR6^+IL-17^− TM cells = assay: IL-17 induction in activated, FACS-sorted CCR6+IL-17- memory T cells cultured with cytokines, intracellular staining after PMA/ionomycin; type: cell-based, human; settings: for IL-17 expression in CCR6+IL-17- T cells: cultured 6 days in the cytokine, compared with IL-2, FIG. 1e
Method: as §1
Manufacturer's protocols (Miltenyi Biotec) for labeling human and mouse IL-17 secreting cells were followed. Briefly, activated T-cells were washed in cold buffer (PBS+0.5% BSA+2 mM EDTA) and labeled with IL-17 catch reagent for 5 minutes on ice. Pre-warmed medium was then added and the cells were incubated at 37° C. on a shaker for 45 minutes. For human IL-17 capture experiments, cells were washed once more with cold buffer and PE-conjugated IL-17 detection antibodies were added and incubated on ice for 10 minutes. For mouse IL-17 capture experiments, all steps were identical, except that the IL-17 detection antibody used was biotinylated, and a secondary staining step using APC-conjugated streptavidin was used. Cells were then washed and stained with additional cell surface antibodies at room temperature for 20 minutes. These cells were then washed once more with cold buffer, resuspended in serum-free RPMI 1640 medium, filtered and FACS sorted. […]

CCR6^− TM cells [2] = assay: Cytokine expression in resting CCR6- memory T cells stimulated with IL-7; type: cell-based, human
Method: as §2

CCR6^− TM cells [3] = assay: IL-17 induction in sorted CCR6-IL-17- memory T cells cultured with cytokines; type: cell-based, human; settings: cultured 6 days in the cytokine, restimulation
Method: as §2

Compound: O=c1[nH]c2ccccc2n1C1CCN(Cc2ccc(-c3nc4cc5nc[nH]c5cc4nc3-c3ccccc3)cc2)CC1 [AKTi-1/2]
- cell viability (TM cells): without adversely affecting cell viability
- expression of IFNγ (CCR6^+ TM cells): not affected
- expression of IL-4 (CCR6^+ TM cells): less reduced
- γc-mediated IL-17/IL-22 induction (CCR6^+ TM cells): repressed γc-mediated IL-17/IL-22 induction in a dose-dependent manner
- cytokine-dependent phosphorylation of Akt (Akt): downregulated cytokine-dependent phosphorylation of Akt

Compound: IL-4: another γc-cytokine
- IL-17/IL-22 (Th17 cytokine) expression in resting CCR6+ TM cells ([1]; no TCR stimulation, unpublished data): did not promote Th17 cytokine production
- TM cell survival ([1]; resting TM cells, unpublished data): did not promote Th17 cytokine production in resting CCR6^+ TM cells or confer TM cell survival

Compound: IL-7: γc-cytokine from R&D Systems, used at 20 ng/mL
- RORC mRNA expression levels (RORC): neither IL-7 stimulation, nor treatment with PI-3K or Akt inhibitors, nor overexpression of FOXO1 or KLF2 affected RORC mRNA expression levels
- IL-17 expression in CCR6+IL-17- T cells (CCR6^+IL-17^− TM cells): induced similar levels of IL-17 expression
- IL-17 or IL-22 expression in CCR6- TM cells (CCR6^− TM cells [2]): failed to express IL-17 or IL-22
- enhancement of IL-17 expression compared to the same cells ex vivo (day 0) ([1]; 10 days, no TCR stimulation): more than 3 fold
- enhancement of IL-22 expression compared to the same cells ex vivo (day 0) ([1]; 10 days, no TCR stimulation): more than 3 fold
- increase of cells co-expressing IL-22 or IFNγ with IL-17 ([1]; IL-7 stimulation): more than 5 fold
- IFNγ production ([1]; resting CCR6+ or CCR6- TM cells cultured with IL-7): almost no impact
- IL-17 expression in CCR6- TM cells (CCR6^− TM cells [3]): neither IL-7 nor IL-15 induced IL-17 expression

Compound: IL-15: γc-cytokine from R&D Systems, used at 20 ng/mL
- IL-17 expression in CCR6+IL-17- T cells (CCR6^+IL-17^− TM cells): induced similar levels of IL-17 expression
- IL-17 expression in CCR6- TM cells (CCR6^− TM cells [3]): neither IL-7 nor IL-15 induced IL-17 expression

Compound: IL-23: cytokine from R&D Systems, used at 20 ng/mL; known to enhance Th17 cell differentiation
- induction of IL-17/IL-22 expression from CCR6+ human TM cells (CCR6^+IL-17^− TM cells; IL-23 in place of γc cytokines, unpublished data): not able to compensate for γc cytokines
- IL-17 expression in CCR6+IL-17- T cells (CCR6^+IL-17^− TM cells): did not influence IL-17 expression
- further induction of IL-17 or IL-22 expression in combination with IL-7 ([1]; resting CCR6+ TM cells): did not significantly synergize with IL-7
